# Measured values from patent publication US7220775B2, “Compound useful for the treatment of neuropathic pain” (H. Lundbeck A/S, priority 2002, dated 2007).
# Assays:
# Human 5HT2A receptor = target: T1, Human 5HT2A receptor (Homo sapiens, UniProt P28223); assay: 5HT2A receptor binding ([3H]ketanserin); conditions: Table 8
# T1 construct: expressed in transfected cells; host or cells: COS-7 cells, transient, vector pCEXV-3
# Protocol: Human 5HT2A Receptor: The coding sequence of the human 5HT2A receptor was obtained from a human brain cortex cDNA library, and cloned into the cloning site of pCEXV-3 eukaryotic expression vector. This construct was transfected into COS-7 cells by the DEAE-dextran method (Cullen, 1987). Cells were harvested after 72 hours and lysed by sonication in 5 mM Tris-HCl, 5 mM EDTA, pH 7.5. The cell lysates were subjected to centrifugation at 1000 rpm for 5 minutes at 4° C., and the supernatant was subjected to centrifugation at 30,000×g for. 20 minutes at 4° C. The pellet was suspended in 50 mM Tris-HCl buffer (pH 7.7 at room temperature) containing 10 mM MgSO4, 0.5 mM EDTA, and 0.1% ascorbate. The affinity of compounds at 5HT2A receptors were determined in equilibrium competition binding assays using [^3H]ketanserin (1 nM). Nonspecific binding was defined by the addition of 10 μM mianserin. The bound radioligand was separated by filtration through GF/B filters using a cell harvester.
# human α1B adrenoceptor = target: T2, human α1B adrenoceptor (Homo sapiens, UniProt P35368); assay: α1B adrenergic receptor binding; conditions: Table 10
# T2 construct: expressed in transfected cells
# Description: Other receptors: Cell membranes expressing human dopamine D1, D2, D4 and rat D3 receptors were purchased through BioSignal, Inc. (Montreal, Canada). Binding assays using the histamine H, receptor; dopamine receptors; and α1A, α1B, and α2 adrenergic receptors may be carried out according to the procedures described in U.S. Pat. No. 5,780,485, the disclosure of which is hereby incorporated by reference in its entirety into this application. Binding assays using the dopamine D5 receptor may be carried out according to the procedures described in U.S. Pat. No. 5,882,855, the disclosure of which is hereby incorporated by reference in its entirety into this application. Binding assays for the human α1D adrenergic receptor may be carried out according to the procedures described in U.S. Pat. No. 6,156,518, the disclosure of which is hereby incorporated by reference in its entirety into this application.
# Human 5HT1E receptor = target: T3, Human 5HT1E receptor (Homo sapiens, UniProt P28566); assay: 5HT1E receptor binding ([3H]-serotonin); conditions: Table 8
# T3 construct: expressed in transfected cells
# Protocol: (§1) Human 5HT1B, 5HT1D, 5HT1E, 5HT1F, and 5HT7 Receptors: The cell lysates of LM(tk−) clonal cell line stably transfected with the genes encoding each of these 5HT receptor-subtypes were prepared as described above. Cell membranes were suspended in 50 mM Tris-HCl buffer (pH 7.4 at 37° C.) containing 10 mM MgCl2, 0.2 mM EDTA, 10 µM pargyline, and 0.1% ascorbate. […] Nonspecific binding was determined in the presence of 10 μM serotonin. The bound radioligand was separated by filtration through GF/B filters using a cell harvester.
# [1] = tested on: neuropathic rats (chronic constriction nerve injury); assay: Chronic constriction nerve injury model of neuropathic pain: mechanical allodynia (Von Frey filaments); type: in vivo, rat; conditions: for effect on withdrawal threshold of the nerve-injured hind paw (Von Frey) vs vehicle / withdrawal threshold of the nerve-injured paw to Von Frey filament challenges: 30 mg/kg i.p.; for withdrawal threshold of the nerve-injured paw to Von Frey filament challenges: Day 12 PO
# Protocol: The aim of this study was to assess the potential analgesic effects of Example 92 following intraperitoneal administration at the doses of 3, 10 and 30 mg/kg, respectively, in an animal model of neuropathic pain. A peripheral mononeuropathy was induced in the right hind limb of rats following a chronic constriction nerve injury (Bennett and Xie, 1988), and the development of mechanical allodynia and thermal hyperalgesia was monitored using established behavioral tests (Attal, N., et al., 1990; Hargreaves, K., et al., 1988).
# Male Sprague-Dawley rats within the weight range of 200-225 g, and approximate age 7-9 weeks, were allowed to acclimate for a minimum of 6 days prior to the start of the behavioral testing.
# All rats underwent a chronic constriction nerve injury, and of these, those that successfully developed allodynia and hyperalgesia were allocated to treatment groups.
# There were 5 separate treatment groups (with a minimum of 10 rats per group). The treatment groups were as follows: • Group C received Morphine at 10 mg/kg (n=10) • Group D received Vehicle for Example 92* at 1 ml/kg (n=10) (* 100% DMSO) • Group E received Example 92 at 30 mg/kg (n=10) • Group F received Example 92 at 3 mg/kg (n=10) • Group G received Example 92 at 10 mg/kg (n=10)
# The dose volume for all treatments was 1 ml/kg. Each rat received a single i.p. dose of the test substance, reference substance or vehicle on Day 12 PO. Test substance and vehicle dosing solutions were encoded (C-G) so that the observers were unaware of the identity of the treatment groups.
# The behavioral tests (Von Frey filament and Thermal Plantar Tests—see below) were performed on all rats on 3 separate days prior to […], to establish baseline values. The pre-surgery baseline values were calculated as the mean of the last 2 days testing (the data from the first day of testing were not included as this was classed as part of the acclimating period). The sequence of tests was always mechanical allodynia (Von Frey Test) followed by thermal hyperalgesia (Thermal Plantar Test), with a minimum 5 min period allowed between the 2 tests.
# Each animal was placed in a wire mesh cage and a series of Von Frey filaments (ranging from filament handle number 3.61 to 6.10) applied to the plantar surface of the hind paw, from below. The filaments were applied in ascending order (starting with the weakest force) and the withdrawal threshold for both the ipsilateral and contralateral hind paws was evaluated. Each filament was indented on the plantar surface of the foot to the point where it just started to bend, and this was repeated approximately 8-10 times per filament at a frequency of approximately 1 Hz. The withdrawal threshold was defined as the lowest force of two or more consecutive Von Frey filaments to elicit a reflex withdrawal response.
# The animals were surgically prepared over 5 days. Each rat was anaesthetized with sodium pentobarbitone (60 mg/ml; 0.6 ml/kg dose, intraperitonealy; batch number 00230; expiry date 22 May 3) and then supplemented as necessary with isoflurane (1-3% in oxygen). The surface around the incision site was shaved and then sterilized with surgical spirit. Under aseptic conditions the right sciatic nerve was exposed by blunt dissection at mid-thigh level and approximately 1 cm of nerve was freed of adhering connective tissue. Four chromic cat gut (4.0) ligatures, spaced at approximately 1 mm inzervals, were then tied so as to barely constrict the nerve (as viewed under 40× magnification) to induce a peripheral mononeuropathy in the right hind limb. The overlying muscle and skin were then closed in layers using suture material, and the anesthesia discontinued. On recovery from anesthesia, the rats were re-housed with their cage mates on soft padded bedding overnight (to reduce the risk of infection) and subsequently on sawdust bedding following full recovery. The animals were allowed 4 full days to recover before the behavioral testing was recommenced. […]
# Human 5HT1F receptor = target: T4, Human 5HT1F receptor (Homo sapiens, UniProt P30939); assay: 5HT1F receptor binding ([3H]-serotonin); conditions: Table 8
# T4 construct: expressed in transfected cells
# Protocol: as §1
# T2 sequence (P35368 whole entry): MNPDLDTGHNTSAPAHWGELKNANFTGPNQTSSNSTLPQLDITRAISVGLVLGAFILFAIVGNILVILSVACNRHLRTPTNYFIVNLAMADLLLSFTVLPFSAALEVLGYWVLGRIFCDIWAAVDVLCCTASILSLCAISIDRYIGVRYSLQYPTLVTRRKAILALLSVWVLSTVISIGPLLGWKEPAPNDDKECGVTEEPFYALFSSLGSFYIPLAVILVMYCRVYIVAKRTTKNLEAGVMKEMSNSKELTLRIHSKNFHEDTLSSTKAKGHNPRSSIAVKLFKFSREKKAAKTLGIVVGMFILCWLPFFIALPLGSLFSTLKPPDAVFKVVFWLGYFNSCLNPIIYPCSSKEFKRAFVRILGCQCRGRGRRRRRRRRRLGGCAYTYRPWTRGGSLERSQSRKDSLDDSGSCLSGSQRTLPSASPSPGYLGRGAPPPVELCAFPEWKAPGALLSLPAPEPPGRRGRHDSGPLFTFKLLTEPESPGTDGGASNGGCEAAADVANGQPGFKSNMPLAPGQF
# T1 sequence (P28223 whole entry): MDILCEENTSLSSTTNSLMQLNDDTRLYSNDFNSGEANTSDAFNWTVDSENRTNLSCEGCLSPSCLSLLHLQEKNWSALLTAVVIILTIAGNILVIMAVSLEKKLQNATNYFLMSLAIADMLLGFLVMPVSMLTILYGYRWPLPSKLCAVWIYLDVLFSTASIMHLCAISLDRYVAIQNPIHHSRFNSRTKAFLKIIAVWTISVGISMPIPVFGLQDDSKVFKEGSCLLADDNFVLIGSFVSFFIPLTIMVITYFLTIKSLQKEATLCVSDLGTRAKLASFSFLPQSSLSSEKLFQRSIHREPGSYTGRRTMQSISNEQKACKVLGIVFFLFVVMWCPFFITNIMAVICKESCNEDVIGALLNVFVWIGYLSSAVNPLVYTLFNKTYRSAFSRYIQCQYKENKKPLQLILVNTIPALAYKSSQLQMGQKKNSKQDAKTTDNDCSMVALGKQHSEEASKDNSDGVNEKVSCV
# T4 sequence (P30939 whole entry): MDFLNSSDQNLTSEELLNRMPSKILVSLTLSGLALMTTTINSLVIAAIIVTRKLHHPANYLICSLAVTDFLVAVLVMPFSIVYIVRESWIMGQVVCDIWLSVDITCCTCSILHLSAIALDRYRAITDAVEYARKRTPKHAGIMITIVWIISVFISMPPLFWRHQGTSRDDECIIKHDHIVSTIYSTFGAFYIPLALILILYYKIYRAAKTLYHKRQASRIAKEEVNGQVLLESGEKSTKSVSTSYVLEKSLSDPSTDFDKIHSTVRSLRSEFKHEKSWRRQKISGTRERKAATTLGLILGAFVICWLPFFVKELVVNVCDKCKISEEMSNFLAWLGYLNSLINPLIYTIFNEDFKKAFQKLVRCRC
# T3 sequence (P28566 whole entry): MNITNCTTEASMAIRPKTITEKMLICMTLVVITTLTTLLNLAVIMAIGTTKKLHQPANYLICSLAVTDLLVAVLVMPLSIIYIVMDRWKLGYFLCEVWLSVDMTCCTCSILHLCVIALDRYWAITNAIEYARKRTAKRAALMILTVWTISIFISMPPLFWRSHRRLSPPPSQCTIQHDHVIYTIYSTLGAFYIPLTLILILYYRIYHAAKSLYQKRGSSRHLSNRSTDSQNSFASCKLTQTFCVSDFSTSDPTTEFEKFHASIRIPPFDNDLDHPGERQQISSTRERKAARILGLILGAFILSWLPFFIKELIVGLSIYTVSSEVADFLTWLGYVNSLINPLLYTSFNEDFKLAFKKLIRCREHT
structure (smiles),measurement,setting,value
"O=C1C(=Nc2cccc(C(F)(F)F)c2)c2ccccc2N1c1ccccc1 [Example 92, 1-PHENYL-3-[[3-(TRIFLUOROMETHYL)PHENYL]IMINO]-1,3-DIHYDRO-2H-INDOL-2-ONE]",selectivity ratio h5HT2A (Ki h5HT2A / Ki hGAL3),Human 5HT2A receptor,>100
same,selectivity ratio hα1B (Ki hα1B / Ki hGAL3),human α1B adrenoceptor,>100
same,selectivity ratio h5HT1E (Ki h5HT1E / Ki hGAL3),Human 5HT1E receptor,>100
same,effect on withdrawal threshold of the nerve-injured hind paw (Von Frey) vs vehicle,[1]; 30 min PD,significantly increased
same,withdrawal threshold of the nerve-injured paw to Von Frey filament challenges,"[1]; 30 min PD, vehicle 4.82±2.77 g, P≦0.05",25.98 ± 8.25 g
same,effect on withdrawal threshold of the nerve-injured hind paw (Von Frey) vs vehicle,[1]; 90 min PD,not found to be significant
same,withdrawal threshold of the nerve-injured paw to Von Frey filament challenges,"[1]; 90 min PD, vehicle 2.43±1.48 g",11.73 ± 6.43 g
same,responses of the uninjured (contralateral) left paw (Von Frey) vs vehicle,"[1]; 3, 10, 30 mg/kg i.p., any time point",No significant changes
same,effect on withdrawal threshold of the nerve-injured paw (Von Frey) vs vehicle,"[1]; 3 or 10 mg/kg i.p., any time point",no significant effect
same,selectivity ratio h5HT1F (Ki h5HT1F / Ki hGAL3),Human 5HT1F receptor,>100
